Each structure is given as a SMILES string. Counter-ions that a name gives are not always drawn. Bounds are passed on as bounds.

What all share (assay type): biochemical
In test [1] the target is T1, HCV NS3/4A protease complex, BMS strain (genotype 1a) (Hepatitis C virus genotype 1a, UniProt P27958, C1454S/C1711G).
T1 construct: recombinant HCV NS3/4A protease complex (amino'acids 1027 to 1711); inferred from the pET21b vector and Ni-NTA purification; made in house; host or cells: Escherichia coli BL21 (DE3), pET21b
T1 sequence (P27958 1027-1711 C1454S/C1711G, one chain of several): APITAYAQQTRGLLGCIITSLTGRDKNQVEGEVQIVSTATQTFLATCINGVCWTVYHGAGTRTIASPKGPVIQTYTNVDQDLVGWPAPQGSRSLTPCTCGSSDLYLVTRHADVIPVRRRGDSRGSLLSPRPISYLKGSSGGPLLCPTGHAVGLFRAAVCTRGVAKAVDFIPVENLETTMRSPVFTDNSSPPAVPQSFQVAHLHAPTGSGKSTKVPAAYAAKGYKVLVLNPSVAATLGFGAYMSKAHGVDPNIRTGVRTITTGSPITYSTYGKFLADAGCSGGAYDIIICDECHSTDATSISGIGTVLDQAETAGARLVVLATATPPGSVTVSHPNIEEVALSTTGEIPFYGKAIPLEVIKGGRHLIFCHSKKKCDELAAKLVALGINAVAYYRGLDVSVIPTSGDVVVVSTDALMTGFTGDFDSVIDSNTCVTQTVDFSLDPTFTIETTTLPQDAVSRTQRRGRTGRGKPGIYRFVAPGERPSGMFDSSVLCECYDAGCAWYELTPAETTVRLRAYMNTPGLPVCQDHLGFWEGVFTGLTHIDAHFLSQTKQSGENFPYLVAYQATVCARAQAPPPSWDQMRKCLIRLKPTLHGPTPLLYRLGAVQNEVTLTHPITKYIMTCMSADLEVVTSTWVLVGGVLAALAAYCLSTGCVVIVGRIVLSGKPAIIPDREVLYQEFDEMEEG
Nature of the test: Recombinant HCV NS3/4A protease complex FRET peptide assay (BMS strain). Summed up: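 Enzyme was NS3/4A complex (aa 1027-1711) from genotype 1a BMS strain, carrying C1454S and C1711G mutations plus a three-lysine tail, expressed in E. coli and Ni-NTA/size-exclusion purified to >90% purity.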

In test [2] the test system is human pancreatic chymotrypsin. Kind of test: Specificity assay, chymotrypsin. Particulars: 2 hr pre-incubation. The protocol:
(§1) The specificities of compounds of the present invention were determined against a variety of serine proteases: human neutrophil elastase (HNE), porcine pancreatic elastase (PPE) and human pancreatic chymotrypsin and one cysteine protease: human liver cathepsin B. In all cases a 96-well plate format protocol using colorimetric p-nitroaniline (pNA) substrate specific for each enzyme was used as described previously (U.S. Pat. No. 6,323,180) with some modifications to the serine protease assays. All enzymes were purchased from Sigma while the substrates were from Bachem.
(§2) Each assay included a 2 hr enzyme-inhibitor pre-incubation at RT followed by addition of substrate and hydrolysis to ˜30% conversion as measured on a Spectramax Pro microplate reader. Compound concentrations varied from 100 to 0.4 μM depending on their potency. […]
(§3) The percentage of inhibition was calculated using the formula: [1−((UVinh−UVblank)/(UVctl−UVblank))]×100 […]

A further test concerns the target T2, human liver cathepsin B (Homo sapiens, UniProt P07858).
T2 construct: purchased Sigma; host or cells: human liver (as named)
Kind of test: Specificity assay, cathepsin B. The note with it: 2 hr pre-incubation. The protocol: as §1, §2, §3

One may read the IC50 as the point on the concentration scale where inhibition reaches its midpoint. For `COc1ccc2c(O[C@@H]3C[C@H]4C(=O)N[C@]5(C(=O)NS(=O)(=O)C6CC6)CC5/C=C/CCCC[C@H](N)C(=O)N4C3)cc(-c3ccccc3)nc2c1` (stereo partly drawn) [Compound 6, (1S,4R,6S,13S,17R)-7-trans-Cyclopropanesulfonic acid [13-amino-17-(7-methoxy-2-phenylquinolin-4-yloxy)-2,14-dioxo-3,15-diazatricyclo[13.3.0.0^4,6]octadec-7-ene-4-carbonyl]amide dihydrochloride], the IC50 in test [1] (IC50, HCV NS3/4A protease FRET assay in vitro, IC50 ranges) is under 50 nM; in test [1] (IC50, against the BMS HCV NS3/4A complex), 21 nM; in test [2] it was over 100000 nM; against human liver cathepsin B, over 100000 nM.

For the origin of these results see patent US6867185B2 (Bristol-Myers Squibb Company, priority 2001, dated 2005).
